# Test results from US20090068646A1, “METHODS AND KITS FOR DETECTING MUTATIONS” (PROMEGA CORPORATION, priority 2004, published 2009).
# Like-named read-outs stand apart in the source and are kept apart here.
# Assays:
# Format in all cases: in vivo, C75BL/6 mice
# mononucleotide repeats [1] = conditions: 50 mg/kg intraperitoneal, liver DNA
# Description: (§1) Treatment of mice used in paraquat studies. […] mice were housed and inbred at the University of Wisconsin, with an average life span 30 months. Four groups of three mice were included in the study: 5-month old mice (young control or YC); 5-month old mice treated with paraquat; 24-month old mice (old age); and 24-month old mice treated with paraquat. Paraquat-treated animals received a single intraperitoneal injection of 50 mg/kg body weight dissolved in PBS 24 hours after their last feeding. Each mouse was sacrificed by cervical dislocation.
# (§2) Tissue Preparation, DNA Extraction and Quantification. The entire liver from each mouse was dissected, washed with PBS, placed in a 1.5 ml Ependorf tube, snap frozen in liquid nitrogen, and stored at −80° C. DNA was prepared from the mouse liver tissue by using the DNA-IQ Tissue and Hair Extraction Kit (Promega Corporation, Madison, Wis.) and was quantified using the PicoGreen dsDNA Quantitative Kit (Molecular Probes, Eugene, Oreg.) following manufacturers protocols.
# Detection of Mutations in Microsatellites using small pool PCR. […] The stability of four short mononucleotide repeats (mBAT-24, mBAT-26, mBat-30, mBAT-37) and three extended mononucleotide repeats (mBAT-59, mBAT-64 and mBAT-67) were evaluated.
# SP-PCR was performed for mutation analysis using 1-2 copies of genomic DNA (6-12 pg). PCR cycles and conditions are the same as described above except that the annealing temperature was 58° C.
# Identification of PCR Products. Separation and detection of amplified fragments was performed on an ABI PRISM® 3100 Genetic Analyzer following the manufacturer's protocol (Applied Biosystems, Foster City, Calif.). Data was analyzed with the GeneScan and Genotyper computer software packages (Applied Biosystems).
# Statistical Analysis. Statistical analysis was done using the statistical Package Sigma Stat version 3, where P value was determined by using one-way ANOVA for each specific group, using Holm-Sidak method did comparisons between the groups.
# mtDNA = conditions: old age paraquat-treated group, three mice
# Description: as §1, §2
# mtDNA Deletion Detection. Based on the mouse mtDNA sequence, four fluorescence labeled primer pairs were designed to detect both wildtype sequences and mtDNA deletions.
# PCR Conditions. […]
# Identification of PCR Products. […] Data was analyzed with the GeneScan and Genotyper computer software packages (Applied Biosystems).
# mononucleotide repeats [2] = conditions: for Mutation Freq / # Mutants: 50 mg/kg intraperitoneal, liver DNA
# [3] = marker mBat-24, Old w/Paraquat (24-month old mice)
# [4] = marker mBat-26, Young w/Paraquat (5-month old mice)
# [5] = marker mBat-30, Old w/Paraquat (24-month old mice)
# [6] = marker mBat-30, Young w/Paraquat (5-month old mice)
# [7] = marker mBat-59, Old w/Paraquat (24-month old mice)
# [8] = marker mBat-64, Young w/Paraquat (5-month old mice)
# [9] = marker mBat-67, Young w/Paraquat (5-month old mice)
# [10] = marker mBat-24, Young w/Paraquat (5-month old mice)
# [11] = marker mBat-26, Old w/Paraquat (24-month old mice)
# [12] = marker mBat-37, Old w/Paraquat (24-month old mice)
# [13] = marker mBat-37, Young w/Paraquat (5-month old mice)
# [14] = marker mBat-49, Old w/Paraquat (24-month old mice)
# [15] = marker mBat-51a, Old w/Paraquat (24-month old mice)
# [16] = marker mBat-51b, Old w/Paraquat (24-month old mice)
# [17] = marker mBat-52, Old w/Paraquat (24-month old mice)
# [18] = marker mBat-59, Young w/Paraquat (5-month old mice)
# [19] = marker mBat-61a, Old w/Paraquat (24-month old mice)
# [20] = marker mBat-64, Old w/Paraquat (24-month old mice)
# [21] = marker mBat-66, Old w/Paraquat (24-month old mice)
# [22] = marker mBat-66, Young w/Paraquat (5-month old mice)
# [23] = marker mBat-67, Old w/Paraquat (24-month old mice)
# [24] = paraquat-treated old age group, loci mBAT-59, mBAT-64, mBAT-66 or mBAT-67 combined
smiles,measurement,setting,value
C[n+]1ccc(-c2cc[n+](C)cc2)cc1 [Paraquat],# Mutants,mononucleotide repeats [1]; [3],0
same,Mutation Freq,mononucleotide repeats [1]; [4],0.000
same,Mutation Freq,mononucleotide repeats [1]; [5],0.000
same,# Mutants,mononucleotide repeats [1]; [6],0
same,# Mutants,mononucleotide repeats [1]; [7],6
same,Mutation Freq,mononucleotide repeats [1]; [8],0
same,Mutation Freq,mononucleotide repeats [1]; [9],0
same,mice showing Δ-mtDNA4977,mtDNA,All three
same,Mutation Freq,mononucleotide repeats [2]; [3],0.000
same,# Mutants,mononucleotide repeats [2]; [10],1
same,Mutation Freq,mononucleotide repeats [2]; [10],0.002
same,# Mutants,mononucleotide repeats [2]; [11],0
same,Mutation Freq,mononucleotide repeats [2]; [11],0.000
same,# Mutants,mononucleotide repeats [2]; [4],0
same,# Mutants,mononucleotide repeats [2]; [5],0
same,Mutation Freq,mononucleotide repeats [2]; [6],0.000
same,# Mutants,mononucleotide repeats [2]; [12],0
same,Mutation Freq,mononucleotide repeats [2]; [12],0.000
same,# Mutants,mononucleotide repeats [2]; [13],1
same,Mutation Freq,mononucleotide repeats [2]; [13],0.001
same,# Mutants,mononucleotide repeats [2]; [14],0
same,Mutation Freq,mononucleotide repeats [2]; [14],0.000
same,# Mutants,mononucleotide repeats [2]; [15],0
same,Mutation Freq,mononucleotide repeats [2]; [15],0.000
same,# Mutants,mononucleotide repeats [2]; [16],0
same,Mutation Freq,mononucleotide repeats [2]; [16],0.000
same,# Mutants,mononucleotide repeats [2]; [17],0
same,Mutation Freq,mononucleotide repeats [2]; [17],0.000
same,Mutation Freq,mononucleotide repeats [2]; [7],0.013
same,# Mutants,mononucleotide repeats [2]; [18],4
same,Mutation Freq,mononucleotide repeats [2]; [18],0
same,# Mutants,mononucleotide repeats [2]; [19],2
same,Mutation Freq,mononucleotide repeats [2]; [19],0.005
same,# Mutants,mononucleotide repeats [2]; [20],8
same,Mutation Freq,mononucleotide repeats [2]; [20],0.019
same,# Mutants,mononucleotide repeats [2]; [8],1
same,# Mutants,mononucleotide repeats [2]; [21],8
same,Mutation Freq,mononucleotide repeats [2]; [21],0.018
same,# Mutants,mononucleotide repeats [2]; [22],3
same,Mutation Freq,mononucleotide repeats [2]; [22],0
same,# Mutants,mononucleotide repeats [2]; [23],20
same,Mutation Freq,mononucleotide repeats [2]; [23],0.051
same,# Mutants,mononucleotide repeats [2]; [9],1
same,"mutations detected in loci mBAT-24, mBAT-26, mBat-30, or mBAT-37","mononucleotide repeats [2]; old paraquat-treated group, short mononucleotide repeats combined",no mutations out of 1608 alleles
same,mutant alleles / alleles assayed,mononucleotide repeats [2]; [24],25/1649
same,mutations in mononucleotide repeat alleles assayed,mononucleotide repeats [2]; [24],over 1.8%
